Experimental data published in ChEMBL document CHEMBL4257544, “Synthesis and biological evaluation of novel asymmetric naphthalene diimide derivatives as anticancer agents depending on ROS generation” (Medchemcomm, 2018).
Activity calls are given as the source filed them. No cut-off for these calls is given here.

Legend:
SMMC-7721 [1] = experiment: Induction of autophagy in human SMMC7721 cells assessed as autophagosome formation at 2 uM after 12 hrs by transmission electron microscopic method; format: functional, cell-based
HCT-116 = experiment: Cytotoxicity against human HCT116 cells after 48 hrs by MTT assay; format: functional, cell-based; settings: HCT-116, 48 h
HepG2 [2] = experiment: Induction of autophagy in human HepG2 cells assessed as increase in BECN1 level at 1 to 3 uM by Western blot analysis; format: functional, cell-based
SMMC-7721 [3] = experiment: Induction of autophagy in human SMMC7721 cells assessed as vacuolization after 12 hrs; format: functional, cell-based
SMMC-7721 [4] = experiment: Induction of apoptosis in human SMMC7721 cells after 24 hrs by acridine orange/ethidium bromide and Hoechst 33342 staining based HCS analysis; format: functional, cell-based
HepG2 [5] = experiment: Induction of apoptosis in human HepG2 cells assessed as increase in p53 protein expression treated at 1 hr post antioxidant alpha-tocopherol addition and measured after 24 hrs by Western blot analysis; format: functional, cell-based
HepG2 [6] = experiment: Downregulation of beta-catenin protein expression in human HepG2 cells treated at 1 hr post antioxidant alpha-tocopherol addition and measured after 24 hrs by Western blot analysis; format: functional, cell-based
HepG2 [7] = experiment: Cytotoxicity against human HepG2 cells assessed as cell rounding after 24 hrs; format: functional, cell-based
HepG2 [8] = experiment: Cytotoxicity against human HepG2 cells assessed as reduction in cell viability in presence of autophagy inhibitor 3-MA by MTT assay; format: functional, cell-based
SMMC-7721 [9] = experiment: Induction of ROS generation in human SMMC7721 cells at 1 to 3 uM after 24 hrs by DCFH-DA staining based HCS analysis; format: functional, cell-based
SMMC-7721 [10] = experiment: Antimigratory activity against human SMMC7721 cells at 1 to 3 uM after 24 hrs by crystal violet staining based transwell migration assay; format: functional, cell-based
HepG2 [11] = experiment: Induction of apoptosis in human HepG2 cells assessed as increase in p53 protein expression at 1 to 3 uM after 24 hrs by Western blot analysis; format: functional, cell-based
SMMC-7721 [12] = experiment: Induction of apoptosis in human SMMC7721 cells assessed as increase in caspase-8 activation at 1 to 3 uM after 24 hrs by Western blot analysis; format: functional, cell-based
SMMC-7721 [13] = experiment: Potency index, ratio of amonafide IC50 to compound IC50 for cytotoxicity against human SMMC7721 cells; format: functional
HepG2 [14] = experiment: Downregulation of Akt phosphorylation at […] residue in human HepG2 cells at 1 to 3 uM after 24 hrs by Western blot analysis; format: functional, cell-based
HepG2 [15] = experiment: Potency index, ratio of amonafide IC50 to compound IC50 for cytotoxicity against human HepG2 cells; format: functional
SMMC-7721 [16] = experiment: Induction of ROS generation in human SMMC7721 cells at 1 to 3 uM after 24 hrs in presence of antioxidant alpha-tocopherol by DCFH-DA staining based HCS analysis; format: functional, cell-based
HepG2 [17] = experiment: Induction of ROS generation in human HepG2 cells at 1 to 3 uM after 24 hrs by DCFH-DA staining based HCS analysis; format: functional, cell-based
SMMC-7721 [18] = experiment: Cytotoxicity against human SMMC7721 cells after 48 hrs by MTT assay; format: functional, cell-based; settings: SMMC-7721, 48 h
HepG2 [19] = experiment: Induction of apoptosis in human HepG2 cells treated at 1 hr post antioxidant alpha-tocopherol addition and measured after 24 hrs by Annexin V/propidium iodide staining based flow cytometry; format: functional, cell-based
SMMC-7721 [20] = experiment: Induction of apoptosis in human SMMC7721 cells after 24 hrs by Annexin V/propidium iodide staining based flow cytometry; format: functional, cell-based
[21] = Cytotoxicity against human QSG7701 cells after 48 hrs by MTT assay; format: cell-based; settings: QSG7701, 48 h
HepG2 [22] = experiment: Cytotoxicity against human HepG2 cells assessed as reduction in cell volume after 24 hrs; format: functional, cell-based
SMMC-7721 [23] = experiment: Induction of apoptosis in human SMMC7721 cells assessed as increase in p53 protein expression at 1 to 3 uM after 24 hrs by Western blot analysis; format: functional, cell-based
SMMC-7721 [24] = experiment: Induction of autophagy in human SMMC7721 cells assessed as decrease in p62 level at 1 to 3 uM by Western blot analysis; format: functional, cell-based
SMMC-7721 [25] = experiment: Cytotoxicity against human SMMC7721 cells assessed as cytoplasm shrinkage after 24 hrs; format: functional, cell-based
HepG2 [26] = experiment: Induction of autophagy in human HepG2 cells assessed as increase in LC3-2 level by Western blot analysis; format: functional, cell-based

SMILES: CCCCN1C(=O)c2ccc3c4c(ccc(c24)C1=O)C(=O)N(CCCN(C)C)C3=O
- Activity (SMMC-7721 [1]): Active
- IC50 (HCT-116): 14.7 µM
- Activity (HepG2 [2]): Active
- Activity (SMMC-7721 [3]): Active
- Activity (SMMC-7721 [4]): Dose-dependent effect
- Activity (HepG2 [5]): inactive
- Activity (HepG2 [6]): inactive
- Activity (HepG2 [7]): Active
- Activity (HepG2 [8]): inactive
- Activity (SMMC-7721 [9]): Active
- Activity (SMMC-7721 [10]): Active
- Activity (HepG2 [11]): Active
- Activity (SMMC-7721 [12]): Active
- Ratio IC50 (SMMC-7721 [13]): 5
- Activity (HepG2 [14]): Active
- Ratio IC50 (HepG2 [15]): 5
- Activity (SMMC-7721 [16]): inactive
- Activity (HepG2 [17]): Active
- IC50 (SMMC-7721 [18]): 1.7 µM
- Activity (HepG2 [19]): inactive
- Activity (SMMC-7721 [20]): Dose-dependent effect
- IC50 [21]: 7.11 µM
- Activity (HepG2 [22]): Active
- Activity (SMMC-7721 [23]): Active
- Activity (SMMC-7721 [24]): Active
- Activity (SMMC-7721 [25]): Active
- Activity (HepG2 [26]): Dose-dependent effect
